Values after ≈ are worked out from the molar mass of the structure shown. Where a name gives a salt, the structure may show the parent alone. Read-outs that look alike come from different tables or passages of the source. Bounds are passed on as bounds.

As usually defined, the MIC50 is the lowest concentration that inhibits either 50% of growth or 50% of the strains tested, depending on the study. The term MIC denotes the smallest concentration in the dilution series that meets the test's criterion for growth inhibition.

Series [1] concerns methicillin-sensitive Staphylococcus pseudintermedius. Kind of series: MIC by broth microdilution against MSSP clinical isolates. In kind it is cell-based. Particulars: nine MSSP isolates, triplicate; for MIC50: lowest concentration inhibiting growth in 50% of isolates; for MIC: read-out: MIC Range. How it is done: (§1) Fifteen isolates of S. pseudintermedius (nine MSSP and six MRSP), identified at the Indiana Animal Disease Diagnostic Laboratory from specimens collected from dogs admitted to the small animal teaching hospital at Purdue University, were included in the study. The specimens were not collected specifically for this research study but were obtained from patients admitted to the hospital for treatment. Clinical specimens were inoculated onto 5% sheep blood agar and incubated at 35°C for 18–24 hours. Standard methods including examination of colony morphology and hemolysis and biochemical tests such as tube coagulase, Voges-Proskauer (VP) and fermentation tests for maltose, trehalose and lactose, were used in addition to matrix-assisted laser desorption ionization time of flight mass spectrometry to identify isolates. Antimicrobial susceptibility was determined by broth microdilution using the SensiTitre (Thermofisher Scientific).
(§2) Bacteria were prepared in phosphate-buffered saline (PBS) until a McFarland standard of 0.5 was achieved. The solution was subsequently diluted 1:300 in Mueller-Hinton broth (MHB) to reach a starting inoculum of 1 × 10^5 colony-forming units (CFU/mL). Bacteria were then transferred to a 96-well microtiter plate. Thiazole compounds and antibiotics were added (in triplicate) to wells in the first row of the microtiter plate and then serially diluted along the vertical axis. […] The MIC was categorized as the concentration where there was no visible growth of bacteria observed.
(In general: Dilution methods test growth across graded concentrations, often in twofold steps.)

Series [2] has as its system methicillin-resistant Staphylococcus pseudintermedius. Kind of series: MIC by broth microdilution against MRSP clinical isolates. Particulars: six MRSP isolates, triplicate; for MIC50: Staphylococcus pseudintermedius, read-out: MIC50. In kind it is cell-based. As for the experimental part:
as §1, §2

Series [3] concerns methicillin-sensitive Staphylococcus pseudintermedius. Kind of series: MBC determination against MSSP clinical isolates. The settings on record: nine MSSP isolates; for MBC: Staphylococcus pseudintermedius, lowest concentration that killed 50% of isolates, read-out: MBC50. Format: cell-based. As for the experimental part:
(§3) The MBC was determined by plating 5 μL from wells on the 96-well microtiter plate (where the MIC was determined) where no growth was observed onto Tryptic soy agar (TSA) plates. […] The MBC was categorized as the concentration where ≥99% reduction in bacterial cell count was observed.

In series [4] the test system is methicillin-resistant Staphylococcus pseudintermedius. Kind of series: MBC determination against MRSP clinical isolates. Format: cell-based. The settings on record: six MRSP isolates; for MBC: Staphylococcus pseudintermedius, read-out: MBC50. How it is done: as §3
The subject of series [5] is MRSP SP3. Kind of series: Time-kill analysis against MRSP. Format: cell-based, Staphylococcus pseudintermedius. The settings on record: 4 × MIC, MRSP SP3, 24 hour incubation at 37°C. As for the experimental part: MRSP SP3 cells in late logarithmic growth phase were diluted to ~1 × 10^6 CFU/mL and exposed to concentrations equivalent to 4 × MIC (in triplicate) of thiazole compounds 1–6 and rifampicin in MHB. Samples (20 μL) were collected after 0, 2, 4, 6, 8, 10, 12, and 24 hours of incubation at 37°C and subsequently serially diluted in PBS. Bacteria were then transferred to TSA plates and incubated at 37°C for 20–24 hours before viable CFU/mL values were determined.

In series [6] the test system is murine macrophage cell line (J774.A1). The series is described as follows: In vitro cytotoxicity analysis (MTS assay). Format: cell-based. Particulars: 10 μg/mL, J774.A1, two hours. As for the experimental part:
Compounds were assayed at concentrations of 5 μg/mL, 10 μg/mL, 20 μg/mL, and 40 μg/mL against a murine macrophage cell line (J774.A1) (ATCC TIB-67, American Type Culture Collection (ATCC), Manassas, VA, USA) to determine the potential toxic effect in vitro. Cells were cultured in Dulbeco’s modified Eagle’s medium (Sigma-Aldrich, St. Louis, MO, USA) with 10% fetal bovine serum (USA Scientific, Inc.) at 37°C with 5% CO2. Controls received DMSO alone at a concentration equal to that in drug-treated cell samples. The cells were incubated with the compounds in a 96-well plate at 37°C and 5.0% CO2 for two hours prior to addition of the assay reagent MTS 3-(4,5-dimethylthiazol-2-yl)-5-(3-carboxymethoxyphenyl)-2-(4-sulfophenyl)-2H-tetrazolium) (Promega, Madison, WI, USA). Absorbance readings were taken using a kinetic ELISA microplate reader (Molecular Devices, Sunnyvale, CA, USA). The quantity of viable cells after treatment with each compound was expressed as a percentage of the control, DMSO.
(§4) All statistical analyses were performed with GraphPad Prism 6.0 (GraphPad Software, La Jolla, CA). Data generated from cytotoxicity analysis of the thiazole compounds against J774.A1 cells and the 260 and 280 nm cell leakage analysis were analyzed using one-way ANOVA, with post hoc Tukey's multiple comparisons test (P < 0.05).
(Tetrazolium assays rely on reduction of a dye to a coloured formazan, in cell work by metabolically active cells.)

The test system of series [7] is MRSP SP3. Kind of series: Checkerboard assay of thiazole compounds with oxacillin. In kind it is cell-based, Staphylococcus pseudintermedius. Particulars: for ƩFIC: combination with oxacillin, ≤ 0.5 synergistic, > 0.5 to ≤ 4.0 indifference, > 4 antagonistic. How it is done: The relationship between the thiazole compounds and oxacillin was assessed via a standard checkerboard assay. Bacteria (MRSP SP3) equivalent to a McFarland standard of 0.5 were prepared in PBS. The bacteria were next diluted in MHB to achieve a starting cell density of 1 × 10^5 CFU/mL. MHB was transferred to all wells of a 96-well microtiter plate. […] Oxacillin was serially diluted along the abscissa of the microtiter plate while the thiazole compound was serially diluted along the ordinate. The plate was incubated for 22–24 hours at 37°C. The MIC of the test compound in combination with oxacillin was determined as the lowest concentration of each compound/antibiotic where no visible growth of bacteria was observed. The fractional inhibitory concentration index (ƩFIC) was calculated for each combination as described previously. A synergistic relationship was classified as an FIC index less than or equal to 0.5. […]

Series [8] concerns MRSP SP3. Kind of series: Post-antibiotic effect against MRSP. Format: cell-based, Staphylococcus pseudintermedius. Particulars: 4 × MIC for one hour. How it is done:
A tube containing untreated bacterial cells served as a control. Afterward, the compound/antibiotic was washed out by diluting bacteria 1:1000 in MHB. Counts of CFU for all cultures were obtained after washing. Aliquots (100 μL) of bacteria were removed every hour (for 10 hours), serially diluted in PBS, and plated on TSA plates. TSA plates were incubated for 20 hours at 37°C before CFU values were determined.

On the set-up of series [9]: method as in PMID 24387054. The settings on record: phosphate-buffered saline; cited from earlier work.
The conditions of series [10]: human liver microsomes; cited from earlier work. On the technique in general: Liver microsomes are a subcellular fraction often used to study metabolism.
Series [11] deals with MRSP SP3. Kind of series: Cell membrane disruption (260/280 nm cell leakage) analysis. The settings on record: for absorbance (260 and 280 nm leakage) compared with untreated cells, statistical result: MRSP SP3, 30 minutes, one-way ANOVA, Tukey, P ≤ 0.05. Format: cell-based, Staphylococcus pseudintermedius. How it is done: In order to investigate the antimicrobial effect of the thiazole compounds on the integrity of the bacterial cell membrane, the release of 260 and 280 nm absorbing components was determined spectrophotometrically. […] Untreated MRSP SP3 cells or cells treated with vancomycin (inhibits cell wall synthesis in bacterial cells) served as negative controls. For the release of 260 and 280 nm absorbing material, the bacterial suspension (control) was treated with lysostaphin (in 50 mM Tris-HCl, pH 8.00) for 30 minutes. Lysostaphin was used as a positive control due to its mode of action being the disruption of the cross-linking of the pentaglycin bridges in the cell wall of staphylococci bacteria. The absorbance of cell supernatant at 260 and 280 nm was determined using a spectrophotometer (Jenway 6305). The average OD260 and OD280 values of duplicates of each treatment option were calculated and expressed as the proportion of average OD260 (or OD280) for each treatment option compared to the average OD260 (or OD280) for the positive control (lysostaphin).
as §4

Series [12] in a line: Kinetic (turbidimetric) solubility in PBS. Format: physicochemical. The settings on record: phosphate-buffered saline; highest concentration with no precipitate. As for the experimental part: The absorbance of the PBS-containing plate was measured prior to addition of the test agents to determine the background absorbance. After 2 hours, the presence of precipitate was detected by turbidity (absorbance at 540 nm).

The test system of series [13] is MRSP SP3. The series is described as follows: Re-sensitization of MRSP to oxacillin, broth microdilution. Format: cell-based. Particulars: Staphylococcus pseudintermedius, clinical isolate identified as MRSP, read-out: MIC of oxacillin alone. How it is done:
MHB was inoculated with MRSP SP3 (5×10^5 CFU/mL), as has been previously described. Aliquots (5 mL) of the bacterial suspension were divided into microcentrifuge tubes. The thiazole compounds tested (at ½ × MIC) were introduced into each tube. After sitting at room temperature for 30 minutes, 1 mL samples from each tube were transferred to a new centrifuge tube prior to addition of oxacillin (at a concentration equivalent to its MIC). Using a 96-well microtiter plate, rows 2–12 were filled with the remaining 4 mL bacterial suspension (containing the thiazole compound). Aliquots (200 μL) from tubes containing both the thiazole compound and oxacillin were transferred to row 1 of the 96-well plate. After aspirating contents in the first row 4–6 times, 100 μL was transferred from wells in row 1 to row 2. This process was repeated to dilute the remaining wells containing no antibiotic. Untreated bacteria served as a control. […] A fold reduction was calculated by comparing the MIC of the antibiotic alone compared to the MIC of the antibiotic given in combination with the thiazole compounds.

Regarding `CCCCc1ccc(-c2nc(C)c(/C(C)=N/NC(=N)N)s2)cc1` [Compound 1], in [1], the MIC50 was 0.35 µg/mL (≈ 1.06 µM) and the MIC fell in the range of 0.17 to 1.38 µg/mL (≈ 0.516 to 4.19 µM). Also, in series [2], the MIC50 was 0.69 µg/mL (≈ 2.09 µM) and the “MIC Range” value lay within 0.35 to 1.38 µg/mL. In [3], the MBC turned out to be 0.46 µg/mL (≈ 1.4 µM) and the “MBC Range” value was in the range of 0.17 to 2.77 µg/mL. For the same molecule, in [4], the MBC was 0.92 µg/mL (≈ 2.79 µM) and the “MBC Range” value was 0.35 to 1.38 µg/mL. Besides, the “time required to completely eliminate MRSP” value in the series on MRSP SP3 [5] was “four hours”. Also, the “toxicity to murine macrophage cells (MTS assay)” value in [6] is listed as “toxic”. Further, the relationship with oxacillin result in the series with MRSP SP3 [7] (checkerboard assay) is “synergistic”. For the same molecule, the ƩFIC in the series on MRSP SP3 [7] was 0.19. The “Post-antibiotic Effect” value in the series with MRSP SP3 [8] was more than 9 h. In addition, the solubility limit in series [9] is 20.56 µg/mL (≈ 62.4 µM). Further, the half-life entry in series [10] is recorded as “under 30 minutes”.

`C/C(=N\NC(=N)N)c1sc(-c2ccc(-c3ccccc3)cc2)nc1C` [Compound 2]: in [1], the MIC50 came out at 0.3 µg/mL (≈ 0.858 µM) and the minimum inhibitory concentration (MIC) was in the range of 0.15 to 0.61 µg/mL (≈ 0.429 to 1.75 µM). Further, in series [2], the MIC50 turned out to be 0.46 µg/mL (≈ 1.32 µM) and the “MIC Range” value was 0.15 to 0.61 µg/mL. Moreover, in series [3], the MBC stood at 0.61 µg/mL (≈ 1.75 µM) and the “MBC Range” value lay within 0.15 to 2.42 µg/mL. For the same molecule, in [4], the MBC was found to be 0.61 µg/mL (≈ 1.75 µM) and the “MBC Range” value was 0.30 to 0.81 µg/mL. The “time required to completely eliminate MRSP” value in the series on MRSP SP3 [5] is on record as “eight hours”. Moreover, the “intracellular content (at 260 nm) released compared to cells treated with lysostaphin” value with MRSP SP3 [11] (4 × MIC, 30 minutes, MRSP SP3) is “Less than 20%”. The “absorbance (260 and 280 nm leakage) compared with untreated cells, statistical result” value with MRSP SP3 [11] is “no statistical difference”. In addition, in series [6], the “toxicity to murine macrophage cells (MTS assay)” value is on record as “toxic”. In addition, in the series with MRSP SP3 [7], the ƩFIC is reported as 0.56. The “Post-antibiotic Effect” value in the series with MRSP SP3 [8] is 8 h.

For `COC(=O)[C@H]1[C@H]2C[C@@H]3c4[nH]c5cc(OC)ccc5c4CCN3C[C@H]2C[C@@H](OC(=O)c2cc(OC)c(OC)c(OC)c2)[C@@H]1OC` [Reserpine, reference compound], the “solubility limit” value in [12] is 19.05 µg/mL (≈ 31.3 µM).

Take `Cc1onc(-c2ccccc2)c1C(=O)N[C@@H]1C(=O)N2[C@@H]1SC(C)(C)[C@@H]2C(=O)O` [oxacillin, oxacillin sodium salt monohydrate]: the MIC in the series with MRSP SP3 [13] came out at 128 µg/mL.

Take “lysostaphin: positive control; disrupts cross-linking of the pentaglycin bridges in the cell wall of staphylococci [reference compound]”: in the series on MRSP SP3 [11], the “absorbance (260 and 280 nm leakage) compared with untreated cells, statistical result” value is on record as “significant difference”.

The values are drawn from paper PMC4472782, “Antibacterial Characterization of Novel Synthetic Thiazole Compounds against Methicillin-Resistant Staphylococcus pseudintermedius” (PLoS ONE, 2015).
